# Assay results as given in US6444698B1, “Application of 2,3,7,8-tetrachlorodibenzo-para-dioxin (TCDD) as a promoter blocker of cancer” (priority 1998, dated 2002).
# Several values for one entry are separate records, joined by “and”; a condition that tells them apart may be missing. Equal entries are not always repeated. Entries after “also recorded” stand apart in the source; their conditions may differ. Where two headings read alike, the source gives them in different places.
# Tests used:
# [1] = test system: male workers in 12 chemical plants; settings: most highly TCDD-exposed members of the NIOSH workforce (Steenland 1999); cited from earlier work
# [2] = test system: Operation Ranch Hand (ORH) airmen; test: Operation Ranch Hand (ORH) cancer incidence and body burden analysis; format: in vivo, human
# Description: (§1) In addition to published and unpublished epidemiology data from the NIOSH Report (Fingerhut et al. (1990)), additional NIOSH Life Table records (LT20406 (1990)), and the Steenland et al. article (1999), the Inventor relies on Bertazzi et al.'s (Epidemiol. 4, 398-406 (1993)) cancer incidence data presentation on a residential population of men and women exposed to the lowest levels of TCDD as a result of a chemical plant explosion near Seveso, Italy, and the Inventor's own analysis of cancer incidence and body burden data in the Operation Ranch Hand (ORH) airmen exposed to TCDD as a result of service in Southeast Asia during the Vietnam War. None of the NIOSH and Seveso papers cited above claim that TCDD acts as an anti-carcinogen. The Air Force Scientists charged with developing the ORH Study also fail to observe TCDD as an anti-carcinogen. Ketchum et al. Amer. J. Epidem. 149, 630-639 (1999).
# The ORH cancer incidence data collected over 30 years has particular value, because one may compute the cancer incidence effects associated with military service in Southeast Asia in internal cohorts unexposed or virtually unexposed to TCDD and distinguish them from an internal cohort of airmen exposed to TCDD within a well calibrated body burden range.
# Kayajanian, Ecotox. Environ. Safety 46, 103-109 (2000); and Kayajanian, Ecotox. Environ. Safety (In press, 2001).
# Kayajanian (2000)(In press, 2001). One standout cancer reduction is associated with an even lower TCDD body burden level: prostate cancer in black veterans is highest at non detect TCDD levels of less than 1.25 ppt; it is reduced at body burdens between 1.25 and 4.0 ppt, and lowest above 4.00 ppt, The pattern of prostate cancer reduction in black men is significant. Kayajanian, (In press, 2001).
# [3] = test system: Operation Ranch Hand (ORH) airmen; settings: cited from earlier work
# [4] = test system: male workers in 12 chemical plants; test: NIOSH Study of chemical plant workers, cancer occurrence; format: in vivo, human
# Description: In 1994, EPA sought to regulate TCDD as a “probable” human carcinogen, using a population of 5280 male workers in 12 chemical plants, each of whom was exposed to contaminant levels of TCDD and some mix of 1000 unidentified other chemicals. Fingerhut et al. (1990). Fingerhut compared the cancer incidence in the plant workers to that expected in a national reference, and EPA concluded all the cancer incidence increases noted by Fingerhut were caused by the TCDD exposure and none were caused by exposures to other chemicals. U.S. EPA (1994). EPA's Science Advisory Board rejected the Agency's TCDD cancer claims. U.S. EPA Science Advisory Board, Review of Draft Documents: A Second Look at Dioxin (1995).
# (§2) The Seveso Study (Bertazzi et al. (1993)) is a report on cancer incidence and cancer incidence changes in the first ten years following the population's exposure to TCDD and other chemicals. Over the course of these ten years, one expects not to register the carcinogenic effects of any chemicals acting as cancer initiators and to include any effects attributable to TCDD discernible within ten years, like promotion or promotion blocking. The first ten years of the lifetime NIOSH Study offer the same advantage. Fingerhut et al. (1990).
# One of the plants (Midland) in the NIOSH Report has workers who reproduce the signature of individual cancer reductions and increases the Inventor observed in Seveso low exposure men: reductions in lung, primary liver (measured in Midland as liver) and multiple myeloma, which collectively are significant; and increases in STS and NHL, which individually are significant. The Seveso signature pattern of cancer incidence changes is present even though workers in Midland and the other 11 chemical plants were exposed to confounding chemicals which might have masked or diminished the extent of pattern confirmation. LT20406 (1990). From Steenland et al. (1999), one can estimate the TCDD level associated with the Midland plant wotkers as 105 ppt above background, or between 105 and 115 ppt.
# The specific and total cancer reductions noted in the NIOSH, Seveso, and ORH studies can be tied to specific dioxin body burden levels measured in serum. Reading Steenland et al. (1999) and Fingerhut et al. (1990) together, one can estimate a range from 3 to 10,000 ppt extra TCDD in serum in eight of the 12 NIOSH plante worker cohorts. […] Midland workers, who show the Seveso pattern of reductions of specific cancers, had 105 ppt TCDD above background, which is assumed to be 0 to 10 ppt.
# industrial cohorts = settings: cited from earlier work
# mouse skin = settings: cited from earlier work
# Sprague-Dawley rats [5] = test: Kociba lifetime rodent feeding study; format: in vivo, rat
# Experimental: EPA has sought to regulate dioxin as a carcinogen on three occassions. […] Kociba et al., Toxicol. Appl. Pharmacol. 46, 279-303 (1978). […] Kociba et al. (1978); U.S. EPA (1985); and U.S. EPA (1994).
# Kociba et al, (1978); U.S. EPA (1985 and 1994).
# To develop the Invention further, cross species comparisons are performed when no second epidemiology report is available to test the effect of TCDD exposure on women. […] Kayajanian, Regul. Toxicol. Pharmacol. 26, 134-137 (1997).
# [6] = test system: residential population of men and women; test: Seveso Study, cancer incidence in residential population exposed to TCDD; format: in vivo, human
# Description: as §1, §2
# For a limited number of narrow cancer classifications, Bertazzi et al. (1993) has provided cancer incidence data stratified in five year intervals both for publication and as a courtesy to the Inventor. Kayajanian, Ecotox. Environ. Safety 42, 103-109 (1999). Fingerhut et al. (1990) also published five year cancer occurrence observations for total cancers. […] This pattern of cancer incidence reduction in the second five year interval is what one would expect if TCDD acted as a promoter blocker of the enumerated individual cancer classifications and a sufficient number of other cancers to generate a significant total cancer incidence reduction.
# The significant individual and total cancer reductions the Inventor noted from the Seveso data, whether stratified or not (Bertazzi et al. (1993)) are associated with median levels of 48 ppt TCDD. Bertazzi et al., Amer. J. Epidem. 153, 1031-1043 (2001). Measurement of TCDD levels include both men and women.
# [7] = target: T1, aryl hydrocarbon (Ah) receptor (Homo sapiens, UniProt P35869); settings: cited from earlier work
# T1 sequence (P35869 11-848): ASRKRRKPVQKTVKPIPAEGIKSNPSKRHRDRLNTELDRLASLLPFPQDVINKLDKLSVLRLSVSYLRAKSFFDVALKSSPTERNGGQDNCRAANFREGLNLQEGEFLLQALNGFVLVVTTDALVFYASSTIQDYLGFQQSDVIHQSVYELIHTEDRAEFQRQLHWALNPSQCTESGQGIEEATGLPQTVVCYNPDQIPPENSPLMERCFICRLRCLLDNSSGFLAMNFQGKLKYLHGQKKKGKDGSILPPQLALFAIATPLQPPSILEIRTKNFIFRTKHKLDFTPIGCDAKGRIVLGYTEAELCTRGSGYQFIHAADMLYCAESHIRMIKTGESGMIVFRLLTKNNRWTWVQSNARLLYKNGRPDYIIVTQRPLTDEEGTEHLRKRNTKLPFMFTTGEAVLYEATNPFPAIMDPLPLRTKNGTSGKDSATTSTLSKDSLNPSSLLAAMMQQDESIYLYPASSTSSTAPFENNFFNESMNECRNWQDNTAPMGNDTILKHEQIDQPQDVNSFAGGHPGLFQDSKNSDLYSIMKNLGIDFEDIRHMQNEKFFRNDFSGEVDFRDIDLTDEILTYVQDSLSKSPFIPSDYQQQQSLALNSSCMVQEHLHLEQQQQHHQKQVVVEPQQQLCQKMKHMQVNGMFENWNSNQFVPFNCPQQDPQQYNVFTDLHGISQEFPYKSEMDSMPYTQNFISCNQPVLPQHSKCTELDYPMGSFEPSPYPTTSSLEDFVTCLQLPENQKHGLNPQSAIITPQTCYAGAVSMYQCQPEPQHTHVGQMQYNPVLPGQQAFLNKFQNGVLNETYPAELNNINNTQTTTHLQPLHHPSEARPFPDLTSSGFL
# Sprague-Dawley rats [8] = settings: cited from earlier work
# [9] = test system: residential population of men and women; settings: cited from earlier work
# [10] = tritiated TCDD ingested in corn oil, volunteer; cited from earlier work
# [11] = low exposure cohorts, second five years compared to first five years
structure (smiles),measurement,setting,value
"Clc1cc2c(cc1Cl)Oc1cc(Cl)c(Cl)cc1O2 [TCDD, 2,3,7,8-tetrachlorodibenzo-para-dioxin]",total cancers,[1],significant increase
same,total cancers other than skin,"[2]; all airmen, 50 ppt (mean body burden 50-100 ppt)",significant cancer incidence reductions; also recorded: significant non skin cancer reductions
same,prostate cancer in black veterans,[2]; body burdens above 4.00 ppt,lowest
same,prostate cancer in black veterans,[2]; body burdens between 1.25 and 4.0 ppt,reduced
same,skin cancer incidence,"[2]; non black airmen, 100 ppt (mean body burden 50-100 ppt)",significant cancer incidence reductions; also recorded: significant skin cancer reductions
same,prostate cancer in black veterans,[2]; non detect TCDD levels of less than 1.25 ppt,highest
same,mean TCDD body burden levels at which significant cancer incidence reductions are observed,[2]; skin and total cancers other than skin,50-100 ppt
same,mean TCDD level of airmen when they left Vietnam,[3],195.7 ppt
same,"lung, primary liver (measured as liver) and multiple myeloma cancers","[4]; Midland plant workers, collectively significant",reductions
same,STS and NHL,"[4]; Midland plant workers, individually significant",increases
same,TCDD level associated with the Midland plant workers,[4]; including background,105-115 ppt
same,incidence of total cancers in men,"[4]; years 6-10 compared to years 1-5, Fingerhut Report",significantly less
same,total cancer mortality,industrial cohorts; most highly TCDD-exposed German herbicide chemical plant workers (Flesch-Janys 1995),significant increase
same,total cancers,"industrial cohorts; separate studies of different industrial cohorts (Zober 1990, Manz 1991)",total cancer increase
same,artificially elevated skin cancer incidence,mouse skin; TCDD administered simultaneously with or a day after the skin cancer initiation step,No reduction
same,artificially elevated skin cancer incidence,"mouse skin; very high single dose administered one to five days prior to initiation, several mice strains",significantly reduces
same,total cancers,"Sprague-Dawley rats [5]; each sex, low and mid dose TCDD levels of 540 and 5100 ppt in liver tissue",significant reduction
same,total cancers,"Sprague-Dawley rats [5]; low dose female rats, p<0.01",significantly reduced
same,uterine cancers,"Sprague-Dawley rats [5]; low dose female rats, p<0.06",significantly reduced
same,liver cancer incidence,"Sprague-Dawley rats [5]; low dose, each sex, significant in the males",reduction
same,"percentagewise cancer incidence reduction, male versus female rats",Sprague-Dawley rats [5]; lowest study exposure,in male rats to a greater extent than in female rats
same,cancers at multiple tissue sites and overall,"Sprague-Dawley rats [5]; male and female rats, TCDD body burdens of 540 and 5100 ppt",reduction
same,lung and multiple myeloma cancer incidence in men,[6]; compared to the outside reference over the entire ten year period,significantly or notably reduced
same,incidence of soft tissue sarcoma (STS) and non Hodgkins lymphoma (NHL),"[6]; low exposure adults (men plus women), second five years compared to first five years",significantly increased
same,corpus uteri cancer incidence in women,[6]; [11],significant cancer incidence reduction
same,primary liver cancer incidence in men,[6]; [11],significant cancer incidence reduction
same,total cancer incidence in women,[6]; [11],significant cancer incidence reduction
same,"percentagewise cancer incidence reduction, men versus women",[6]; lowest study exposure,to a greater extent in men than in women
same,binding to the aryl hydrocarbon (Ah) receptor,[7],preferentially binds
same,hepatocarcinogenicity,"Sprague-Dawley rats [8]; body burden level 25,400 ppt (Safe citing Kociba)",very hepatocarcinogenic
same,liver cancer incidence,Sprague-Dawley rats [8]; high dose female Sprague-Dawley rats fed TCDD over a lifetime,significantly elevated
same,mammary and uterine cancers,"Sprague-Dawley rats [8]; high dose female, body burden level 25,400 ppt (Safe citing Kociba)",anti-carcinogenic
same,total cancers,"[9]; Italian men from Seveso, pooled two highest exposed cohorts, over twenty years (Bertazzi 2001)",significant increase
same,median TCDD level associated with significant individual and total cancer reductions,[9]; men and women,48 ppt and 48.0 ppt
same,label retention,[10],87%
